Laboratory results as given in patent US8741262B2, “Targeted radiotherapy” (Katholieke Universiteit Leuven, K.U. Leuven R&D, priority 2007, dated 2014).

Tested on: liver radiation-induced fibrosarcoma (RIF-1), RFA-induced necrosis
Test: Hypericin distribution in liver RIF-1 tumor in mice after radiofrequency ablation, fluoromacroscopy and fluorescence microscopy
Format: in vivo
Settings: 5 mg/kg iv 24 h after RFA, 3 d after injection
Description: The rectangular frame in A and B indicates where micrographs (C and D) were approximately focused. […] Thus, the prolonged retention of hypericin in necrosis matches well the radiation half life of iodine-131 (8 d) or yttrium-90 (64 h), which offers an ideal condition for the present adjuvant anti-cancer radiotherapy with combined use of a small molecule therapeutically labeled NACCs featuring multi-millimeter irradiation penetration (max. range of beta particles in tissue is 2.4 mm for iodine-131 and 12 mm for yttrium-90).

## Cc1cc(O)c2c(=O)c3c(O)cc(O)c4c5c(O)cc(O)c6c(=O)c7c(O)cc(C)c8c1c2c(c34)c(c78)c65 [hypericin]
  Fluorescence microscopy of necrotic tumor regions: can still be detected in RFA-induced necrotic tumor regions (NT)
  Tissue distribution by UV light fluoromacroscopy: almost completely cleared from viable liver (VL) and viable tumor (VT), but is retained only in necrotic tumor (NT) and necrotic liver (NL)
